{"source": "ChEMBL document CHEMBL1629586", "about": "“Preparation and stability of voriconazole eye drop solution” (Antimicrob Agents Chemother, 2009)", "experiment": "Chemical stability of the compound at pH 7 after 30 days", "assay_type": "physicochemical", "conditions": "buffer, pH 7, 720 h", "data": [{"smiles": "C[C@@H](c1ncncc1F)[C@](O)(Cn1cncn1)c1ccc(F)cc1F", "note": "[VORICONAZOLE]", "values": [{"measurement": "Stability", "result": "Stable"}]}]}
